Assay results taken from the supplement of paper PMC10307832.

Legend:
Assay in all cases: relative viability (nuclei count vs DMSO), 5 days (fraction); higher = more cells survive
NCI-H1734 = test system: NCI-H1734
Summary of the method: (§1)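 One day after seeding in 1536-well plates, lung cancer cell lines were dosed by pin tool. Dosing was either single-drug or a fixed anchor-drug dose plus five library-drug doses (not always all listed) in √10 steps. After 5 days, nuclei were stained in one fix-and-stain step and counted on 4× images, and relative viability is the nuclei count of treated wells over that of vehicle wells, given as the median of duplicate plates.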

NCI-H322M = test system: NCI-H322M
Summary of the method: as §1

NCI-H647 = test system: NCI-H647
Summary of the method: as §1

HOP-62 = test system: HOP-62
Summary of the method: as §1

ChaGo-K-1 = test system: ChaGo-K-1
Summary of the method: as §1

NCI-H441 = test system: NCI-H441
Summary of the method: as §1

NCI-H596 = test system: NCI-H596
Summary of the method: as §1

NCI-H2009 = test system: NCI-H2009
Summary of the method: as §1

LXF-289 = test system: LXF-289
Summary of the method: as §1

201T = test system: 201T
Summary of the method: as §1

NCI-H3122 = test system: NCI-H3122
Summary of the method: as §1

NCI-H2126 = test system: NCI-H2126
Summary of the method: as §1

H3255 = test system: H3255
Summary of the method: as §1

LK-2 = test system: LK-2
Summary of the method: as §1

NCI-H2170 = test system: NCI-H2170
Summary of the method: as §1

PC-14 = test system: PC-14
Summary of the method: as §1

NCI-H1651 = test system: NCI-H1651
Summary of the method: as §1

NCI-H1755 = test system: NCI-H1755
Summary of the method: as §1

CAL-12T = test system: CAL-12T
Summary of the method: as §1

NCI-H2087 = test system: NCI-H2087
Summary of the method: as §1

EMC-BAC-2 = test system: EMC-BAC-2
Summary of the method: as §1

CCCCCCCCCCCC1=C(O)C(=O)C=C(O)C1=O [Embelin] + CC1(C)CCC(c2ccc(Cl)cc2)=C(CN2CCN(c3ccc(C(=O)NS(=O)(=O)c4ccc(N[C@H](CCN5CCOCC5)CSc5ccccc5)c(S(=O)(=O)C(F)(F)F)c4)cc3)CC2)C1 [Navitoclax] (partner 0.5 µM)
relative viability (NCI-H1734; first compound 0.08 µM): 0.847
relative viability (NCI-H1734; first compound 0.8 µM): 1.09
relative viability (NCI-H1734; first compound 2.53 µM): 1.23
relative viability (NCI-H1734; first compound 8 µM): 0.894
relative viability (NCI-H322M; first compound 0.08 µM): 1.1
relative viability (NCI-H322M; first compound 0.8 µM): 1.37
relative viability (NCI-H322M; first compound 2.53 µM): 1.48
relative viability (NCI-H322M; first compound 8 µM): 1.12
relative viability (NCI-H647; first compound 0.08 µM): 1.25
relative viability (NCI-H647; first compound 0.8 µM): 1.35
relative viability (NCI-H647; first compound 2.53 µM): 1.21
relative viability (NCI-H647; first compound 8 µM): 1.2
relative viability (HOP-62; first compound 0.08 µM): 0.882
relative viability (HOP-62; first compound 0.8 µM): 1.16
relative viability (HOP-62; first compound 2.53 µM): 1.09
relative viability (HOP-62; first compound 8 µM): 1.22
relative viability (ChaGo-K-1; first compound 0.08 µM): 1.17
relative viability (ChaGo-K-1; first compound 0.8 µM): 1.54
relative viability (ChaGo-K-1; first compound 2.53 µM): 0.956
relative viability (ChaGo-K-1; first compound 8 µM): 0.777
relative viability (NCI-H441; first compound 0.08 µM): 0.52
relative viability (NCI-H441; first compound 2.53 µM): 0.56
relative viability (NCI-H441; first compound 8 µM): 0.667
relative viability (NCI-H596; first compound 0.08 µM): 0.934
relative viability (NCI-H596; first compound 0.8 µM): 1.06
relative viability (NCI-H596; first compound 2.53 µM): 1.12
relative viability (NCI-H596; first compound 8 µM): 0.908
relative viability (NCI-H2009; first compound 0.08 µM): 1.23
relative viability (NCI-H2009; first compound 0.8 µM): 1.24
relative viability (NCI-H2009; first compound 2.53 µM): 1.23
relative viability (NCI-H2009; first compound 8 µM): 1.08
relative viability (LXF-289; first compound 0.08 µM): 1.01
relative viability (LXF-289; first compound 0.8 µM): 0.959
relative viability (LXF-289; first compound 2.53 µM): 1.03
relative viability (LXF-289; first compound 8 µM): 0.953
relative viability (201T; first compound 0.08 µM): 1.18
relative viability (201T; first compound 0.8 µM): 1.19
relative viability (201T; first compound 2.53 µM): 1.19
relative viability (201T; first compound 8 µM): 1.17
relative viability (NCI-H3122; first compound 0.08 µM): 1.05
relative viability (NCI-H3122; first compound 0.8 µM): 1.01
relative viability (NCI-H3122; first compound 2.53 µM): 0.985
relative viability (NCI-H3122; first compound 8 µM): 1.02
relative viability (NCI-H2126; first compound 0.08 µM): 0.879
relative viability (NCI-H2126; first compound 0.8 µM): 0.801
relative viability (NCI-H2126; first compound 2.53 µM): 0.848
relative viability (NCI-H2126; first compound 8 µM): 0.869
relative viability (H3255; first compound 0.08 µM): 0.516
relative viability (H3255; first compound 0.8 µM): 0.674
relative viability (H3255; first compound 2.53 µM): 0.551
relative viability (H3255; first compound 8 µM): 0.599
relative viability (LK-2; first compound 0.08 µM): 0.904
relative viability (LK-2; first compound 0.8 µM): 1.2
relative viability (LK-2; first compound 2.53 µM): 1.26
relative viability (LK-2; first compound 8 µM): 0.809
relative viability (NCI-H2170; first compound 0.08 µM): 0.641
relative viability (NCI-H2170; first compound 0.8 µM): 0.678
relative viability (NCI-H2170; first compound 2.53 µM): 0.698
relative viability (NCI-H2170; first compound 8 µM): 0.547
relative viability (PC-14; first compound 0.08 µM): 0.968
relative viability (PC-14; first compound 0.8 µM): 1.05
relative viability (PC-14; first compound 2.53 µM): 0.997
relative viability (PC-14; first compound 8 µM): 1.06
relative viability (NCI-H1651; first compound 0.08 µM): 0.926
relative viability (NCI-H1651; first compound 0.8 µM): 1.19
relative viability (NCI-H1651; first compound 2.53 µM): 1.02
relative viability (NCI-H1651; first compound 8 µM): 1.09
relative viability (NCI-H1755; first compound 0.08 µM): 0.993
relative viability (NCI-H1755; first compound 0.8 µM): 1.03
relative viability (NCI-H1755; first compound 2.53 µM): 1.07
relative viability (NCI-H1755; first compound 8 µM): 0.991
relative viability (CAL-12T; first compound 0.08 µM): 1.12
relative viability (CAL-12T; first compound 0.8 µM): 1.41
relative viability (CAL-12T; first compound 2.53 µM): 1.23
relative viability (CAL-12T; first compound 8 µM): 1.24
relative viability (NCI-H2087; first compound 0.08 µM): 0.892
relative viability (NCI-H2087; first compound 0.8 µM): 1.17
relative viability (NCI-H2087; first compound 2.53 µM): 0.93
relative viability (NCI-H2087; first compound 8 µM): 0.989
relative viability (EMC-BAC-2; first compound 0.08 µM): 1.17
relative viability (EMC-BAC-2; first compound 0.8 µM): 1.17
relative viability (EMC-BAC-2; first compound 2.53 µM): 1.33
relative viability (EMC-BAC-2; first compound 8 µM): 1.3
